≈ marks a conversion by molar mass, not a printed value. Where a name gives a salt, the structure may show the parent alone. Read-outs that look alike come from different tables or passages of the source.
Tests used:
Assay type in all cases: cell-based
[1] = tested on: Gram-positive and Gram-negative organisms; experiment: antibacterial activity (general statement); details: in words
B. subtilis = experiment: MIC on (nutrient) agar; details: Bacillus subtilis; B. subtilis, agar; read-out: minimum inhibitory concentration (MIC)
Staph. aureus Oxford = experiment: MIC on (nutrient) agar; details: Staphylococcus aureus, read-out: minimum inhibitory concentration (MIC)
Staph. aureus Russell = experiment: MIC on (nutrient) agar; details: Staphylococcus aureus; Staph. aureus Russell, agar; read-out: minimum inhibitory concentration (MIC)
β-Haemolytic Strep. CN10 = experiment: MIC on (nutrient) agar; details: β-Haemolytic Strep. CN10, agar; read-out: minimum inhibitory concentration (MIC)
E. coli JT 1 = experiment: MIC on nutrient agar; details: Escherichia coli
Salmonella typhi = experiment: MIC on nutrient agar; details: Salmonella enterica, read-out: minimum inhibitory concentration (MIC)
Shigella sonnei = experiment: MIC on nutrient agar; details: read-out: minimum inhibitory concentration (MIC)
Klebsiella aerogenes A = experiment: MIC on nutrient agar; details: Klebsiella aerogenes A, nutrient agar; read-out: minimum inhibitory concentration (MIC)
Proteus mirabilis C977 = experiment: MIC on nutrient agar

Row | Structure (SMILES) | antibacterial activity [1] | MIC (B. subtilis) [µg/mL] | MIC (Staph. aureus Oxford) [µg/mL] | MIC (Staph. aureus Russell) [µg/mL] | MIC (β-Haemolytic Strep. CN10) [µg/mL] | MIC (E. coli JT 1; JT1, E. coli JT 1, nutrient agar, read-out: minimum inhibitory concentration (MIC)) [µg/mL] | MIC (Salmonella typhi) [µg/mL] | MIC (Shigella sonnei) [µg/mL] | MIC (Klebsiella aerogenes A) [µg/mL] | MIC (Proteus mirabilis C977; Proteus mirabilis C977, nutrient agar, read-out: minimum inhibitory concentration (MIC)) [µg/mL] | MIC (E. coli JT 1; JT1, read-out: minimum inhibitory concentration (MIC)) [µg/mL] | MIC (Proteus mirabilis C977; Proteus mirabilis, C977, read-out: minimum inhibitory concentration (MIC)) [µg/mL]
1 | O=C(Cc1cccs1)N[C@@H]1C(=O)N2C(C(=O)O)=C(Cc3cccnc3)CS[C@H]12 [Example 2, 3(3-pyridylmethyl)-7β-(2-thienylacetamido)-3-cephem-4-carboxylic acid] | essentially similar to the trifluoroacetate salt described in Example 1 | – | – | – | – | – | – | – | – | – | – | –
2 | O=C(Cc1ccncc1)N[C@@H]1C(=O)N2C(C(=O)O)=C(Cc3cccnc3)CS[C@H]12 [Example 17, 7β(4-pyridylacetamido)-3(3-pyridylmethyl)-3-cephem-4-carboxylic acid di-trifluoroacetic acid salt] | – | 0.25 | 0.12 | 25 | 0.12 | 25 | 10 | 25 | 10 | 10 | – | –
3 | CN(C(=O)C=Cc1ccccc1)C(=O)N[C@@H](C(=O)N[C@@H]1C(=O)N2C(C(=O)O)=C(Cc3cccnc3)CS[C@H]12)c1ccccc1 [Example 20] | – | 32 (≈ 52.3 µM) | 4 (≈ 6.54 µM) | 63 (≈ 103 µM) | 0.25 (≈ 0.409 µM) | – | > 125 | 63 (≈ 103 µM) | 63 (≈ 103 µM) | – | 125 (≈ 204 µM) | > 125

Source: US3966718A, “7-β-Acylamino-ceph-3-ems and salts and esters therefor” (Beecham Group Limited, priority 1973, dated 1976)
